From patent publication US7396844B1, “Benzamidine derivatives” (Ajinomoto Co., Inc., priority 1997, dated 2008) come the findings set out here.

Structures can show the parent of a compound that is named as a salt. Where two headings read alike, the source gives them in different places.

Test [1] deals with T1, human thrombin (Homo sapiens, UniProt P00734).
T1 construct: human thrombin (a product of SIGMA Co.); purchased SIGMA Co
In words: Determination of thrombin-inhibiting activity. The format is biochemical. On the procedure: 130 μl of 100 mM Tris-HCl buffer adjusted to pH 8.4 was added to 10 μl of an aqueous solution of a test compound. Then 10 μl of a solution of human thrombin (a product of SIGMA Co.) adjusted to 2 units/ml with Tris-HCl buffer of pH 8.4 was added to the resultant mixture. […] The absorbance was determined and then the initial reaction rate was determined. A control was prepared in the same manner as that described above except that the solution of the compound to be tested was replaced with 10 μl of tris hydrochloride buffer adjusted to pH 8.4.

For test [2], the system named is blood plasma. Put plainly: Determination of blood anticoagulating activity by prothrombin time (PT). The arrangement: key: -log of concentration doubling control PT. The format is biochemical, human. On the procedure: The blood anticoagulating activity was determined by a prothrombin time (PT) determination method. The PT was determined as follows: The blood was taken from healthy people. […] The blood plasma was separated by the centrifugation. 5 μl of DMSO solution containing a test compound was added to 45 μl of the blood plasma. After the incubation at room temperature for 2 minutes, a test tube containing the blood plasma solution was placed in Sysmex CA-3000 fully automatic blood coagulation determination device (a product of Toa Medical Electronics Co., Ltd), and incubated at 37° C. for 3 minutes. […] PT was automatically determined with the device. A sample containing 5 μl of DMSO in place of the solution of the test compound was used as the control. The negative logarithm (PT2) of the concentration of the test compound which elongated PT of the control to the twice as long was determined, and employed as the index of the blood anticoagulating activity.

For test [3], the target named is T2, activated human blood coagulation factor X (Homo sapiens, UniProt P00742).
T2 construct: purchased Enzyme Research Co
T2 sequence (P00742 235-488 limits assumed): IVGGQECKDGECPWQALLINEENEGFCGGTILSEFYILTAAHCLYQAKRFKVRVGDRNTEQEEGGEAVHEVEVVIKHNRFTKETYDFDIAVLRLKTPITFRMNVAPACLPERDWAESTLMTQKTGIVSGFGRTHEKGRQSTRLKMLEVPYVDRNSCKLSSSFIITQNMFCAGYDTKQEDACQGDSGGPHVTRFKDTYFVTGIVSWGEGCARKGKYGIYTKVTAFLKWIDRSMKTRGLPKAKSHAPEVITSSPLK
T2 sequence (P00742 41-179 partner limits assumed): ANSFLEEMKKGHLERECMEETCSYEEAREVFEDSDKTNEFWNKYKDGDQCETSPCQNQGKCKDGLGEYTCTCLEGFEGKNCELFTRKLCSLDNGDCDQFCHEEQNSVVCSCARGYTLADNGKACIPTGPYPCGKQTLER
In words: Determination of activity of inhibiting the activated blood coagulation factor X. The format is biochemical. The note with it: for IC50: read-out: Activity of inhibiting activated blood coagulation factor X (pIC50) (converted). On the procedure: 130 μl of 100 mM Tris-HCl buffer adjusted to pH 8.4 was added to 10 μl of an aqueous solution of a compound to be tested. Then 10 μl of a 0.5 unit/ml solution of activated human blood coagulation factor X (a product of Enzyme Research Co.) in Tris-HCl buffer hydrochloride of pH 8.4 was added to the resultant mixture. After the incubation at room temperature for 10 minutes, 50 μl of a solution of N-benzoyl-L-isoleucyl-L-glutamyl-glycyl-L-arginyl-p-nitroanilide hydrochloride (a product of Peptide Institute, Inc.) adjusted to 0.8 mM with Tris-HCl buffer (pH 8.4) was added thereto. The absorbance was determined and then the initial reaction rate was determined. A control was prepared in the same manner as that described above except that the solution of the compound to be tested was replaced with 10 μl of Tris-HCl buffer adjusted to pH 8.4.

The mark [4] stands for this setting: Table 2, same manner as Example 94, read-out: Thrombin-inhibiting activity (pIC50) (converted).
The mark [5] stands for this setting: Table 2, negative logarithm of concentration that elongated PT of the control to twice as long, plasma of healthy people.
Where [6] appears, read: Table 2, same manner as Example 93.
Setting [7] is: Table 3, same manner as Example 94, read-out: Thrombin inhibiting activity (pIC50) (converted).
Where [8] appears, read: Table 3, same manner as Example 184, negative logarithm of concentration doubling PT.
The mark [9] stands for this setting: Table 3, same manner as Example 93.
Where [10] appears, read: Table 1, negative logarithm of concentration inhibiting 50% of initial rate, substrate S-2238, Tris-HCl pH 8.4, read-out: Thrombin-inhibiting activity (pIC50) (converted).
Setting [11] is: Table 1, negative logarithm of concentration inhibiting 50% of initial rate, Tris-HCl pH 8.4, room temperature.

For `CC(=N)N1CCC(Oc2ccc(C[C@@H](COc3cccc(C(=N)N)c3)NS(=O)(=O)c3ccc(/C=C/C(=O)O)cc3)cc2)CC1.O=C(O)C(F)(F)F.O=C(O)C(F)(F)F` [Compound of Ex. 171, (2E)-3-[4-[(2S)-1-[4-(1-acetimidoyl-4-piperidyloxy)phenyl]-3-(3-amidinophenoxy)-2-propylsulfamoyl]phenyl]acrylic acid bistrifluoroacetate], the IC50 in test [1] (setting [4]) is 39.8 µM; in test [3] (setting [6]), 100 nM. Further, in test [2] (setting [5]), the “Blood anticoagulating activity (PT2)” value worked out at 6.
`N=C(N)c1ccc(C(=O)NCCOc2cc(C(=N)N)ccc2CC(=O)C(=O)O)cc1` [Compound of Ex. 147, bistrifluoroacetate]: the IC50 was 20 µM in test [1] (setting [4]) and 39.8 nM in test [3] (setting [6]). In addition, in test [2] (setting [5]), the “Blood anticoagulating activity (PT2)” value came to 6.5.
On the same counts, the results for `CC(=N)N1CCC(Oc2ccc(C[C@H](NS(=O)(=O)c3ccccc3)C(=O)Nc3cccc(C(=N)N)c3)cc2)CC1.O=C(O)C(F)(F)F.O=C(O)C(F)(F)F` [Compound of Ex. 178, (2S)—N-(3-amidinophenyl)-2-(benzenesulfonylamino)-3-[4-(1-acetimidoyl-4-piperidyloxy)phenyl]propionamide bistrifluoroacetate] are over 398 µM, 501 nM and 5.7.
Turning to `CC(=N)N1CCC(Cc2ccc(C[C@@H](COc3cccc(C(=N)N)c3)NS(=O)(=O)c3ccccc3)cc2)CC1.O=C(O)C(F)(F)F.O=C(O)C(F)(F)F` [Compound of Ex. 165, 3-[(2S)-2-(benzenesulfonylamino)-3-[4-[(1-acetimidoyl-4-piperidyl)methyl]phenyl]propoxy]benzamidine bistrifluoroacetate], the IC50 is 100 µM in test [1] (setting [4]) and 200 nM in test [3] (setting [6]). The “Blood anticoagulating activity (PT2)” value in test [2] (setting [5]) is on record as 6.
For `N=C(N)c1ccc(C(=O)NCCOc2cccc(C(=N)N)c2)cc1.O=C(O)C(F)(F)F.O=C(O)C(F)(F)F` [Compound of Ex. 95, N-[2-(3-amidinophenoxy)ethyl]-4-amidinobenzamide bistrifluoroacetate], the “Blood anticoagulating activity (PT2)” value in test [2] (setting [5]) is 5.9. Also, in test [3] (setting [6]), the IC50 was 316 nM.
In the case of `CN(C)C(=O)c1ccc(C(=O)N[C@@H](COc2cc(C(=N)N)ccc2CC(=O)C(=O)O)CC(=O)O)cc1.O=C(O)C(F)(F)F` [Compound of Ex. 188, (3R)-4-[5-amidino-2-(2-carboxy-2-oxoethyl)phenoxy]-3-(4-dimethylcarbamoylbenzoylamino)butanoic acid trifluoroacetate], the IC50 in test [1] (setting [7]) is 398 µM; in test [3] (setting [9]), 7.94 nM. The “Blood anticoagulating activity (PT2)” value in test [2] (setting [8]) was 5.7.
With `N=C(N)c1ccc(C(=O)NCCCc2cccc(C(=N)N)c2)cc1.O=C(O)C(F)(F)F.O=C(O)C(F)(F)F` [Compound of Ex. 144, N-[3-(3-amidinophenyl)propyl]-4-amidinobenzamide bistrifluoroacetate], the “Blood anticoagulating activity (PT2)” value in test [2] (setting [5]) turned out to be 5. Further, the IC50 in test [3] (setting [6]) is 1580 nM.
Regarding `N=C(N)c1ccc(CC(=O)C(=O)O)c(OC[C@@H](CC(=O)O)NC(=O)c2ccc(S(=O)(=O)N3CCCC3)cc2)c1.O=C(O)C(F)(F)F` [Compound of Ex. 195, (3R)-4-[5-amidino-2-(2-carboxy-2-oxoethyl)phenoxy]-3-[4-(pyrrolidine-1-sulfonyl)benzoylamino]butanoic acid trifluoroacetate], the figures for the IC50 in test [1] (setting [7]) and in test [3] (setting [9]) were 31.6 µM and 31.6 nM, respectively. Moreover, in test [2] (setting [8]), the “Blood anticoagulating activity (PT2)” value turned out to be 5.9.
Regarding `CC(=N)N1CCC(Oc2ccc(C[C@@H](COc3cccc(C(=N)N)c3)NS(=O)(=O)c3ccccc3)cc2)CC1.O=C(O)C(F)(F)F.O=C(O)C(F)(F)F` [Compound of Ex. 158, 3-[(2S)-2-(benzenesulfonylamino)-3-[4-(1-acetimidoyl-4-piperidyloxy)phenyl]propoxy]benzamidine bistrifluoroacetate], the IC50 in test [1] (setting [4]) was 50.1 µM; in test [3] (setting [6]), 158 nM. The “Blood anticoagulating activity (PT2)” value in test [2] (setting [5]) is recorded as 6.2.
As for `CC(=N)N1CCC(Oc2ccc(C[C@@H](CCc3cccc(C(=N)N)c3)NS(=O)(=O)c3ccccc3)cc2)CC1.O=C(O)C(F)(F)F.O=C(O)C(F)(F)F` [Compound of Ex. 175, 3-[(3R)-3-(benzenesulfonylamino)-4-[4-(1-acetimidoyl-4-piperidyloxy)phenyl]butyl]benzamidine bistrifluoroacetate], the IC50 in test [1] (setting [4]) was 63.1 µM; in test [3] (setting [6]), 251 nM. Also, the “Blood anticoagulating activity (PT2)” value in test [2] (setting [5]) amounted to 5.9.
Regarding `N=C(N)c1ccc(C(=O)NCCSc2cccc(C(=N)N)c2)cc1.O=C(O)C(F)(F)F.O=C(O)C(F)(F)F` [Compound of Ex. 143, N-[2-(3-amidinophenylthio)ethyl]-4-amidinobenzamide bistrifluoroacetate], in test [2] (setting [5]), the “Blood anticoagulating activity (PT2)” value is reported as 5.3. The IC50 in test [3] (setting [6]) is 501 nM.
With `N=C(N)c1ccc(C(=O)N[C@@H](CCC(=O)O)COc2cccc(C(=N)N)c2)cc1` [Compound of Ex. 83, (4S)-4-(4-amidinobenzoylamino)-5-(3-amidinophenoxy)pentanoic acid bistrifluoroacetate], the IC50 in test [1] (setting [10]) was over 1000 µM; in test [3] (setting [11]), 158 nM.
Take `N=C(N)c1ccc(C(=O)N[C@@H](COc2cccc(C(=N)N)c2)Cc2ccc(C(=O)O)cc2)cc1` [Compound of Ex. 90, 4-[(2R)-2-(4-amidinobenzoylamino)-3-(3-amidinophenoxy)propyl]benzoic acid bistrifluoroacetate]: the IC50 in test [1] (setting [10]) is over 251 µM; in test [3] (setting [11]), 39.8 nM.
For `N=C(N)c1ccc(C(=O)N[C@H](CCC(=O)O)COc2cccc(C(=N)N)c2)cc1` [Compound of Ex. 121, (4R)-4-(4-amidinobenzoylamino)-5-(3-amidinophenoxy)pentanoic acid bistrifluoroacetate], the IC50 in test [1] (setting [4]) was over 1000 µM; in test [3] (setting [6]), 50.1 nM.
Turning to `CN(C)C(=O)c1ccc(C(=O)NCCOc2cc(C(=N)N)ccc2CC(=O)C(=O)O)cc1` [Compound of Ex. 80, 3-[4-amidino-2-[2-[4-(dimethylcarbamoyl)benzoylamino]ethoxy]phenyl]-2-oxo-propionic acid trifluoroacetate], the IC50 in test [1] (setting [10]) is 39.8 µM; in test [3] (setting [11]), 12.6 nM.
Take `CCOP(=O)(O)c1ccc(S(=O)(=O)N[C@H](COc2cccc(C(=N)N)c2)Cc2ccc(OC3CCN(C(C)=N)CC3)cc2)cc1.O=C(O)C(F)(F)F.O=C(O)C(F)(F)F` [Compound of Ex. 73]: in test [1] (Table 1, negative logarithm of concentration inhibiting 50% of initial rate, substrate S-2238, Tris-HCl pH 8.4), the “Thrombin-inhibiting activity (pIC50)” value is recorded as 3.9. Further, in test [3] (setting [11]), the “Activity of inhibiting activated blood coagulation factor X (pIC50)” value is 8.1.
On to `CC(=N)N1CCC(Oc2ccc(C(=O)NCCOc3cc(C(=N)N)ccc3CC(=O)C(=O)O)cc2)CC1` [Compound of Ex. 79, 3-[4-amidino-2-[2-[4-(1-acetimidoyl-4-piperidyloxy)benzoylamino]ethoxy]phenyl]-2-oxopropionic acid bistrifluoroacetate], for which the IC50 in test [1] (setting [10]) is 25.1 µM; in test [3] (setting [11]), 20 nM.
On the same counts, the results for `N=C(N)c1cccc(OCCNC(=O)c2ccc(C(=O)N3CCCC3)cc2)c1` [Compound of Ex. 9, N-[2-(3-amidinophenoxy)ethyl]-4-(1-pyrrolidinecarbonyl)benzamide trifluoroacetate] are 50.1 µM and 20 nM.
